Data taken from patent US12097190B2, “Therapeutic use of levorotatory β-lactams in hematopoiesis, immuno-oncology therapy, and regulation of lipoprotein and apolipoprotein levels” (Alpha-1 Biologics, LLC, priority 2017, dated 2024).

Legend:
[1] = molecular target: T1, cell surface human leukocyte elastase (HLE-CS) (Homo sapiens, UniProt P08246); experiment: Adherence of U937 cells to compound-coated glass (binding to HLE-CS); format: cell-based; conditions: 2,000 U937 cells added per compound-treated well; for Adherent Cells: at optimal adherence concentration
T1 construct: endogenous in cells
T1 sequence (P08246 30-267): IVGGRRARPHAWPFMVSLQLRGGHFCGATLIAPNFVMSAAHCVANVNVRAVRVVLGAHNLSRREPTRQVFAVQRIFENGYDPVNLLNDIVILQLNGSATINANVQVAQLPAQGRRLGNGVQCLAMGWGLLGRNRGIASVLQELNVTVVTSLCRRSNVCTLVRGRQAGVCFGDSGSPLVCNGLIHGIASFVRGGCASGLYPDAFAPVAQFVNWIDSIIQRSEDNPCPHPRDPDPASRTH
From the text: Adherence is the first step in cell migration and requires […] calcium, magnesium, signaling, or energy. […] […] After washing and fixing the cells, the number of adherent cells were counted microscopically.

[2] = molecular target: T2, soluble, granule-associated human leukocyte elastase (HLE-G) (Homo sapiens, UniProt P08246); experiment: Inhibition of soluble human leukocyte elastase (HLE-G), SA3NA substrate, 405 nm; format: biochemical; conditions: for IC50: IC50 of compound versus HLE-G (75 μM); for Molar Excess**: Molar excess of compound to HLE-G at IC50
T2 sequence (P08246 30-267): T1 sequence (P08246 30-267)
Protocol: The procedures for measuring the capacity of substances to inhibit soluble forms of elastase or HLE-G are well known to those of ordinary skill in the art (U.S. Pat. No. 6,887,678; Bristow et al., 1998). Briefly, soluble human leukocyte elastase (HLE-G) is incubated for 2 minutes with a test substance, and to this mixture is added the elastase substrate succinic-L-Ala-L-Ala-L-Ala-p-nitroanilide (SA3NA, Sigma-Aldrich). Results are detected by measuring the color change at 405 nm.
Assay 1: Inhibition of HLE (microplate assay, 10 tests per plate) as described in Example 2 above and previously published (Bristow et al., 1998).

E. coli DH5-Alpha = experiment: Kirby-Bauer Disk Test, zones of inhibition; format: cell-based; conditions: for zone of inhibition at 5000 µM: 5 mM
Protocol: […] At this concentration of cells, bacteria were spread on Mueller-Hinton agar plates. […] After incubation for 16 hours at 37° C., plates were examined for zones of inhibition.

LDL = experiment: Diet-induced obesity (DIO) mouse model, serum LDL levels; format: in vivo; conditions: week 6, normalized to vehicle
Protocol: The well-known Jackson Laboratory (Bar Harbor, Me.) C57BL/6 Diet-Induced Obesity (DIO) mouse model represents human metabolic syndrome and elevated LDL levels. Mice are fed a high fat diet (60% fat) or normal diet (10% fat) for various periods of time and lipoprotein levels were measured. […] In accordance with a protocol used in a recently conducted human clinical trial (NCT01731691), mouse peripheral blood was collected into blood collection tubes, and serum was analyzed for lipoprotein levels using Beckman Coulter AU680 Chemistry System. In addition, cells were analyzed by flow cytometry to quantitate lymphocyte subsets including CD3, CD4, and CD8. As compared to baseline levels (before treatment), lipoprotein levels (including, but not limited to total cholesterol, HDL, LDL, apoA, apoB, apoC, apoE) and blood cells expressing the above mentioned cellular markers were quantitated to determine changes due to treatment. Diet-induced obesity mice (DIO, Jackson Laboratory) were fed a 60% fat diet for 17 weeks. […] Because mice were maintained on the DIO diet throughout the study, body weight and LDL levels increased in the vehicle control (Group 1). To compare the effectiveness of compounds, mean values within each treatment group were normalized by forming a ratio to mean values of vehicle, and the ratio was expressed as normalized % change using to the formula: 100−(Treatment mean/Vehicle mean*100).

U937 Clone 10 cells = experiment: Receptor polarization, cell migration and SHIV endocytosis in preconditioned cells; format: cell-based, human
Protocol: The procedures for inducing receptor polarization have been described (Bristow et al., 2003).
To examine receptor polarization, microscope slides are prepared by adding serial dilutions of a β-lactams. Cells are added to the microscope slides and incubated for 30 minutes in humidified 5% CO2 at 37° C. Unattached cells are removed by washing, and attached cells are fixed by application of 4% paraformaldehyde after which attached cells are counted by light microscopy and photographed using confocal microscopy
Receptor Polarization: U937 Clone 10 cells were cultured overnight in AIM-V serum-free medium. Cells were pelleted, re-suspended in AIM-V at 2×10^6/ml, and 250 μl (5×10^5 cells) was added to Eppendorf tubes pre-coated to prevent attachment.
Binding and Endocytosis: AT 2 chemically inactivated SHIV preparations, consisting of non-infectious virus with conformationally and functionally intact envelope glycoproteins, were provided by the AIDS Vaccine Program (SAIC Frederick, Frederick, Md.). Cells were pulsed with virus (30 ng p27 or p24 per 10^6 cells) for 2 hr. at 2° C. which allows binding, but prevents endocytosis. Alternatively, cells were pulsed with virus for 2 hr. at 37° C. which allows binding and endocytosis. Following pulsing for 2 hr., cells were mounted on Alcian blue slides for microscopy. The presence of inactivated virus in test cells was detected using dodecameric human CD4+-IgG1 provided by the Laboratory of Immunoregulation, NIAID, NIH. This reagent specifically recognizes conformationally intact HIV 1/SIV envelope gp120. CD4-IgG1 was detected using HRP-conjugated Rb anti-human IgG (Sigma). CD4+ IgG-labeled cells were coupled to Oregon 488 fluorochrome using the tyramide signal amplification system (Life Science Products, Boston, Mass., USA). […] Cells were analyzed using 2 μm scanning from 3B.

T lymphocytes = experiment: Effect on T cell numbers in C57BL6 mice, flow cytometry; format: in vivo, mouse; conditions: 5 mg/kg oral gavage, 2 weeks of treatment, change from baseline
Protocol: Compounds were delivered by oral gavage 5 days per week. Blood was collected weekly for detection of CD3e, CD4, and CD8a T cells by flow cytometry using the mouse T lymphocyte subset antibody cocktail with isotype control (BD Biosciences). The study was performed at the Division of Laboratory Animal Research, Stony Brook University, Stony Brook, N.Y. Staining and statistical analysis was performed by Alpha-1 Biologics, and the samples were acquired by the Flow Cytometry Laboratory, Stony Brook Hospital, using a BD LSRFortessa instrument. […] Data were normally distributed and compared using Student's T-test. Mean % Change in CD3+ T cells for vehicle was −11% and for CD4+CD8+ progenitors was −13%. […] Average percent change from baseline is represented in FIGS. 6A and 6B where % change=100×[(Treatment Mean-Baseline)/Baseline].

[3] = tested on: HIV permissive (plus) clone 10; experiment: Adherence assay on coverslips, U937 plus clone 10; format: cell-based, human
Protocol: To coverslips prepared with chemoattractants as described above, 10^6 cells in 90 μl HBSS were mixed to uniformity, and incubated for 30 min in humidified 5% CO2 at 37° C. without dehydration. To detect interacting effects of stimulants, cells were delivered in an 80 μl volume to coverslips previously prepared with 10 μl of one stimulant, mixed to uniformity, and incubated for 15 min at 37° C. Subsequently, an additional stimulant was delivered in a 10 μl volume to each coverslip, mixed with pre-incubated cells to uniformity, and incubated for 30-60 min at 37° C. […] Slides were examined by epi-illumination UV microscopy on a Zeiss Axioskop Means and standard deviations were determined by counting adherent cells in at least three fields/coverslip.
Means and standard deviations represent the difference between stimulated and unstimulated adherence. […] Adherence was optimized for each chemoattractant and adherence induced by each chemoattractant was enumerated in more than three separate experiments.

elastase = conditions: inhibition of elastase activity as described in the package insert; cited from earlier work
[4] = tested on: Human acute myeloid leukemia cells (AML); conditions: cited from earlier work
[5] = tested on: transplanted human stem cells, transplanted AML cells; conditions: mouse model; cited from earlier work
CD4+ T lymphocytes = conditions: cited from earlier work
[6] = Escherichia coli, DH5ALPHA, 10 μl per disk, 16 hours at 37° C., read-out: diameter of zone of inhibition

Molecule	Optimal Adherence Concentration (nM)*** [1]	Adherent Cells [1]	IC50 [2]	Molar Excess** [2]	other results
CC1(C)S[C@@H]2[C@H](NC(=O)[C@H](N)c3ccc(O)cc3)C(=O)N2[C@H]1C(=O)O [Amoxicillin]	1 nM	54 ± 20			
C[C@H]1[C@H](NC(=O)/C(=N\OC(C)(C)C(=O)O)c2csc(N)n2)C(=O)N1S(=O)(=O)O [Aztreonam]	1 nM	33 ± 4	234 µM	3.1	
CO/N=C(\C(=O)N[C@@H]1C(=O)N2C(C(=O)O)=C(COC(N)=O)CS[C@H]12)c1ccco1 [Cefuroxine, Cefuroxime]	1 nM	34 ± 8	167 µM	2.2	
CC1=C(C(=O)O)N2C(=O)[C@@H](NC(=O)[C@H](N)c3ccccc3)[C@H]2SC1 [Cephalexin]	10 nM	27 ± 10			
CC1(C)S[C@@H]2[C@H](NC(=O)[C@H](N)c3ccccc3)C(=O)N2[C@H]1C(=O)O [D-Ampicillin, Ampicillin]					activity in the Kirby-Bauer Disk Test (E. coli DH5-Alpha; 0.5 mM): exhibits activity; zone of inhibition at 500 µM (E. coli DH5-Alpha; Escherichia coli, DH5ALPHA, 0.5 mM, 10 μl per disk, 16 hours at 37° C., read-out: diameter of zone of inhibition): 15 mm; zone of inhibition at 5000 µM (E. coli DH5-Alpha; [6]): 30 mm
Cc1onc(-c2c(Cl)cccc2Cl)c1C(=O)N[C@@H]1C(=O)N2[C@@H]1SC(C)(C)[C@@H]2C(=O)O [Dicloxacillin]	1 nM	26 ± 9	232 µM	3.1	
C[C@@H](O)[C@H]1C(=O)N2C(C(=O)O)=C(S[C@@H]3CN[C@H](CNS(N)(=O)=O)C3)[C@H](C)[C@H]12 [Doripenem]	100 nM	52 ± 6	178 µM	2.4	
O=C1[C@H](CC[C@H](O)c2ccc(F)cc2)[C@@H](c2ccc(O)cc2)N1c1ccc(F)cc1 [Ezetimibe]	100 nM	40 ± 3	277 µM	3.7	normalized mean % change in LDL (LDL; 10 mg/kg oral gavage 5 days per week): −43.8±29.6%
C[C@@H](O)[C@H]1C(=O)N2C(C(=O)O)=C([C@H]3CCCO3)S[C@H]12 [Faropenem]	10 nM	23 ± 4	203 µM	2.7	
CC1(C)SC2C(NC(=O)C(N)c3ccccc3)C(=O)N2C1C(=O)O [L-Ampicillin, (2S,5R,6R)-6-((S)-2-amino-2 phenylacetamcido)-3,3-dimethyl-7-oxo-4-thia-1-azabicyclo[3.2.0] heptane-2-acid]					activity in the Kirby-Bauer Disk Test (E. coli DH5-Alpha; 0.5 mM): ineffective as an antibiotic; zone of inhibition at 5000 µM (E. coli DH5-Alpha; [6]): 14 mm; cell motility (morphology by confocal microscopy) (U937 Clone 10 cells): exhibited the morphology of cells undergoing cell motility; receptor polarization (U937 Clone 10 cells): induces receptor polarization; cell migration and endocytosis (SHIV) (U937 Clone 10 cells; FIGS. 3A and 3B): stimulation of cell migration and endocytosis; normalized mean % change in LDL (LDL; 5 mg/kg oral gavage 5 days per week): −41.0±20.5%; normalized mean % change in LDL (LDL; 50 mg/kg oral gavage 5 days per week): 3.7%; Mean % Change in CD3+ T cells (T lymphocytes): +16%; Mean % Change in CD4+CD8+ progenitors (T lymphocytes): +38%
CC1(C)S[C@@H]2[C@H](NC(=O)COc3ccccc3)C(=O)N2[C@H]1C(=O)O [Pen V, Penicillin V]	10 nM	30 ± 4	262 µM	3.5	
MAAPVCK [methoxysuccinyl-L-Ala-L-Ala-L-Pro-L-Val-chloromethylketone]					stimulation of adherence [3]: stimulated to adhere
N-tosyl-L-phenylalanine chloromethylketone [TPCK]					stimulation of adherence [3]: stimulated to adhere
PROLASTIN-C®: human α1PI, cryoprecipitate preparation isolated from human plasma (Grifols)					specific activity (elastase): 70%
Phe-Leu-Gly-Phe-Leu (FLGFL; printed: Phe-Leu-Gly-Phe-Leu) [synthetic peptide representative of the HIV fusion domain]					stimulation of adherence [3]: stimulated to adhere
α1PI: abundant proteinase inhibitor alpha-1 proteinase inhibitor (α1PI, α1 antitrypsin)					SDF-1-induced pseudopodia formation ([4]; AML cells): prevented; SDF-1 dependent migration ([4]; pre-incubation of AML cells): significantly reduced; homing of stem cells to and egress of AML cells from bone marrow [5]: inhibited homing of transplanted human stem cells to bone marrow and egress of transplanted AML cells from bone marrow; CD4+ counts (CD4+ T lymphocytes; HIV-1-infected patients with acquired and uninfected patients with inherited α1PI deficiency): caused an increase in CD4+ counts; LDL in subjects (CD4+ T lymphocytes; α1PI treatment): produced decreased LDL
